From publication PMC6434189, “Peperomin E and its orally bioavailable analog induce oxidative stress-mediated apoptosis of acute myeloid leukemia progenitor cells by targeting thioredoxin reductase” (Redox Biology, 2019)
pIC50, pKd: −log10 of the molar value.

Legend:
GCLC = biological target: T1, GCLC (Homo sapiens, UniProt P48506); experiment: BLI binding assay, GCLC
T1 construct: purchased Abcam
T1 sequence (P48506 1-637): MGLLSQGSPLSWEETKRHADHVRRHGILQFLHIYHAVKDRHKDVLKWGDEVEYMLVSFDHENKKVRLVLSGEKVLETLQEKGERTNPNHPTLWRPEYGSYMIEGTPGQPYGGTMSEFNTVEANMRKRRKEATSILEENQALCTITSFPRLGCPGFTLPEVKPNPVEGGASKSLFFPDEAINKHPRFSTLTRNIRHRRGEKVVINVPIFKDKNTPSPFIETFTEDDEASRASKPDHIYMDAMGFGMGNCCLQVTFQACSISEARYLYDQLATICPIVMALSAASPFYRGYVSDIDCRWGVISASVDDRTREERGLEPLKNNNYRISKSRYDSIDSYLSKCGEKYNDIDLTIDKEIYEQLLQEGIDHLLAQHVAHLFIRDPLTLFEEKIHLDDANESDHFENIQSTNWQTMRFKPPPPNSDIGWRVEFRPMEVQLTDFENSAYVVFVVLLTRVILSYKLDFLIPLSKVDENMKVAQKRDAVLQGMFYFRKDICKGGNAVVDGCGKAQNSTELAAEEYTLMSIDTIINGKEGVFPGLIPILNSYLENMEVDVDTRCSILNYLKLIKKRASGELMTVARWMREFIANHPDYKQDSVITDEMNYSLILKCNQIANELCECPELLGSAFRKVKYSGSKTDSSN
Procedure: The binding kinetics of PepE or PepA to purified recombinant proteins were determined using BLI on an Octet RED 96 system (ForteBio, Shanghai, China) following the manufacturer's protocol. All interaction analyses were performed at 25 °C in PBS with 0.2% DMSO. Purified recombinant proteins (0.9 μM, the TrxR1 full length and TrxR1 protein fragment were pre-reduced by 400 μM of NADPH before test) were pre-labeled with biotin using […] (Abcam) following the manufacturer's instruction. Loading of the Dip and Read Super Streptavidin (SSA) Biosensors (ForteBio) were conducted by exposing biotinylated proteins to biosensor tips for 2 h. The 96-well microplates used in the Octet were filled with 200 μL sample or buffer per well and agitated at 1000 rpm. The loaded biosensors were washed in buffer for 600 s and transferred to wells containing PepE at concentrations of 0.625, 1.25, 2.5, 5, and 10 μM or PepA at concentrations of 1.25, 2.5, 5, 10 and 20 μM, respectively, in the buffer. […] Reference measurements were conducted using the buffer instead of PepE (or PepA). A parallel set of SA unloaded biosensors was prepared to act as a control. The sample-sensorgrams were corrected by subtracting the double reference curve. Kinetic parameters (Kon and Kdis) and affinity (KD) were determined from a global fit to a 1:1 binding model of the data between proteins and PepE using Octet software (ForteBio).

recombinant human TrxR1 = biological target: T2, recombinant human TrxR1 (Homo sapiens, UniProt Q16881); experiment: In vitro TrxR1 activity assay (DTNB reduction); assay type: biochemical
T2 construct: purchased Abcam ab204206
T2 sequence (Q16881 1-499 isoform Q16881-5): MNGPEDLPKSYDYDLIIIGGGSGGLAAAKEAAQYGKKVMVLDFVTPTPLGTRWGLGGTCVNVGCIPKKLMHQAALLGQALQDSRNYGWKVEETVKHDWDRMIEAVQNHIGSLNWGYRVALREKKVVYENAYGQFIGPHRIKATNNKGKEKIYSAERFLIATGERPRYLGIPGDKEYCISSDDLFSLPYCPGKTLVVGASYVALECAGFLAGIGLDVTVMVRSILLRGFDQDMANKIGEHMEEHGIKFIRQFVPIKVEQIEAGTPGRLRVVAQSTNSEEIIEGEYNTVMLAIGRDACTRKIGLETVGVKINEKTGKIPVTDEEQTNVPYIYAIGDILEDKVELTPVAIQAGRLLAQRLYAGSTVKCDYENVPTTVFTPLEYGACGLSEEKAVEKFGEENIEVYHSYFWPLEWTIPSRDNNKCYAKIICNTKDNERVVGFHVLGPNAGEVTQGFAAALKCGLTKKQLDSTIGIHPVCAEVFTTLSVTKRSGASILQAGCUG
Procedure: The in vitro TrxR1 activity assay was performed using the DTNB reduction assay. Briefly, 0.1 μM recombinant human TrxR1 or TrxR1 without Sec498 residue (TrxR1 nSec) protein was reduced with 100 μM NADPH in assay buffer (50 mM Tris-HCl, 1 mM EDTA, pH = 7.5) for 30 min at room temperature. The reduced proteins was then treated with the indicated concentrations of PepE (final concentrations of 0.25, 0.5, 1, 2, 4, 6 μM), respectively, and incubated for 1 h at 37 °C. A mixture of assay buffer solution (50 mM Tris-HCl, 1 mM EDTA, pH = 7.5) containing DTNB and NADPH was added then added, making the final concentrations of DTNB and NADPH 2 mM and 200 μM, respectively. The absorbance was monitored at 412 nm using the SpectraMax i3x microplate reader (Molecular Devices). The linear increase of absorbance during the initial 3 min was recorded for calculating the relative enzyme activity. The same amount of DMSO was added to the control experiments and the activity is expressed as the percentage of the control.

Sec residue in TrxR1 = biological target: T3, Sec residue in TrxR1 (Homo sapiens, UniProt Q16881); experiment: BIAM labeling assay; assay type: biochemical; details: pH 6.5; PepE 1, 5, 10 μM; DNCB 5 μM
T3 construct: purchased Abcam ab204206
T3 sequence (Q16881 1-499 isoform Q16881-5): T2 sequence (Q16881 1-499 isoform Q16881-5)
Procedure: To further assess whether the Sec residue in TrxR1 was the modified site of PepE. The BIAM labeling assay was performed according to previous report. Briefly, 100 μM BIAM stock solution in 100 mM Tris-HCl, 1 mM EDTA buffer (pH = 6.5) was freshly prepared before each test. The TrxR1 protein (1 μM) was incubated with different concentrations (1, 5, 10 μM) of PepE or 5 μM of DNCB (positive control) and DMSO (negative control) in 50 mM Tris-HCl, 1 mM EDTA buffer (pH = 7.5) and 400 μM NADPH at 37 °C. After incubation, 4 μL of the reaction mixture was withdrawn and added mixed with 20 μM of BIAM solution in 100 mM Tris-HCl, 1 mM EDTA assay buffer (pH = 6.5) for 30 min at 37 °C to allow selective alkylation of free Sec residues. The reaction was stopped by adding the IAA solution (final concentration 50 mM). The samples were then denatured in SDS buffer, boiled and subjected to SDS-PAGE and western-blotting on a 7.5% gel, and the separated proteins were transferred to nitrocellulose membrane. The enzymes labeled with BIAM were detected with HRP-conjugated streptavidin and enhanced chemiluminescence detection. The bands were analyzed using Gel-pro 32 software.

- pKd (GCLC): 2.87
- kon (GCLC): 465 M⁻¹ s⁻¹
- koff (GCLC; read-out: Kdis): 0.625 s⁻¹
- pIC50 (recombinant human TrxR1; DTNB reduction assay, NADPH-reduced TrxR1 0.1 μM, 1 h at 37 °C): 6.03
- reversibility of TrxR1 inhibition (recombinant human TrxR1; removal of PepE by Sephadex G-25 desalting column did not recover activity (data not shown)): irreversibly
- BIAM alkylation of Sec residue of TrxR1 (Sec residue in TrxR1): significantly block
Structure (SMILES): C=C1C(=O)OC[C@H]1C(c1cc(OC)c2c(c1)OCO2)c1cc(OC)c2c(c1)OCO2 [PepE, Peperomin E]
